Entries after “also recorded” stand apart in the source; their conditions may differ.
Experiments:
human GIP receptor = molecular target: T1, human GIP receptor (Homo sapiens, UniProt P48546); test: In vitro potency (CRE luciferase; whole cells), BHK CRE luc2P hGIPR; type: cell-based; settings: 0.2% HSA
T1 construct: expressed in transfected cells; host or cells: BHK (parent line BHKTS13), BHK CRE luc2P hGIPR clone #5
T1 sequence (P48546 22-466): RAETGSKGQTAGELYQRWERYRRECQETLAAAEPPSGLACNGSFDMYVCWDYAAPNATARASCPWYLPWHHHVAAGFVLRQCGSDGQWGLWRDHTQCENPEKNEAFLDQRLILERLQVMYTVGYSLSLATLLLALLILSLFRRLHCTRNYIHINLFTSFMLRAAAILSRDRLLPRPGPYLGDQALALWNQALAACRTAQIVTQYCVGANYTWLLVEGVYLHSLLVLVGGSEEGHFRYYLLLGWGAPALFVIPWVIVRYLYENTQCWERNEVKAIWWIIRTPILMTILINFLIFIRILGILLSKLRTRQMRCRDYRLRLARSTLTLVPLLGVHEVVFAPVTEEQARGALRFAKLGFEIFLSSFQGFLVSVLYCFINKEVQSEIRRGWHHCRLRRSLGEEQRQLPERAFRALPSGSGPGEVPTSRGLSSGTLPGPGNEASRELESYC
Outline: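 BHK clones carrying a CRE luciferase element, each transfected with one human receptor, were seeded at 5000 cells/well overnight. Compounds were diluted in buffer with 1% ovalbumin and 0.1% Pluronic F-68, with or without human serum albumin. Luminescence was read after steadylite plus; non-linear log(agonist)-response fit, averaged over at least two replicates.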

[1] = Chemical stability: purity loss by LCMS; type: physicochemical; settings: 37° C., 4 weeks, 250 μM, pH 7.4
Description: The aim of this study is to determine the chemical stability of GIP derivative compositions. As a measure of stability of the GIP derivative composition, the formation of high molecular weight peptide formation (% HMWP) as a function of time was analysed by size-exclusion chromatography (SEC-MS). Further, the purity loss of the GIP derivative compositions was measured by LCMS. Samples for chemical stability assays were freshly prepared before each assay. […] The pH of the sample was adjusted to the desired value using appropriate amounts of concentrated NaOH and HCl. […] The column oven was kept at 55° C. […] The solvents were pumped from a binary solvent manager system and mixed on the high pressure side in a mixer with a volume of 50 μl. The gradient and flow can be seen in table 4: [table] A Flow-through-needle auto sampler at 8° C. was used to inject 1 μl of each sample. The effluent passed through a tunable UV detector (TUV) tuned to 215 nm. The outlet from the UV detector passed to the electrospray source of the mass spectrometer. The capillary was held at 3 kV and dry nitrogen gas was purged at a flow of 750 I/h and a temperature of 250° C. The source block was kept at 120° C. and the large bore cone was flushed with nitrogen at 50 I/h with standard electrode potentials on the rest of the instrument. The MS was operated in high resolution mode with a nominal resolution of 35000. The ToF analyser was operated in ADC mode with an m/z window from 100-2000.

[2] = Chemical stability: HMWP formation by SEC-MS; type: physicochemical; settings: 37° C., 4 weeks, 250 μM, pH 7.4
Description: The aim of this study is to determine the chemical stability of GIP derivative compositions. As a measure of stability of the GIP derivative composition, the formation of high molecular weight peptide formation (% HMWP) as a function of time was analysed by size-exclusion chromatography (SEC-MS). Further, the purity loss of the GIP derivative compositions was measured by LCMS. Samples for chemical stability assays were freshly prepared before each assay. […] The pH of the sample was adjusted to the desired value using appropriate amounts of concentrated NaOH and HCl. […] Formation of covalent oligomers (HMWPs) was analysed and identified by a SEC-MS method. […] The LC system was coupled to both a TUV detector operated at 215 nm, 10 Hz and a high resolution QToF mass spectrometer from Waters (Synapt G2S) operated in positive ion mode and m/z range of 100 to 4000 with normal resolution setting. Lock mass correction against Leu-Enkephalin was done every 31 sec. Spectra were processed in MassLynx version 4.1 and MaxEnt deconvoluted.

[3] = Dynamic Light Scattering Stability Index (DLS-SI); type: physicochemical; settings: concentration only 5 μM instead of 250 μM; pH 7.4, 25° C.
[4] = ThT fibrillation assay (physical stability); type: physicochemical; settings: 250 μM, pH 7.4, 37° C., 45 hours of incubation
Description: The Thioflavin T assay was performed as outlined in Schlein (2017), AAPS J, 19(2), 397-408.
This has traditionally been measured by visual inspection of the sample. However, that kind of measurement is very cumbersome and depending on the observer. Therefore, the application of a small molecule indicator probe is much more advantageous. Thioflavin T (ThT) is such a probe and has a distinct fluorescence signature when binding to fibrils [Naiki et al. (1989) Anal. Biochem. 177, 244-249; LeVine (1999) Methods. Enzymol. 309, 274-284].
The time course for fibril formation can be described by a sigmoidal curve with the following expression [Nielsen et al. (2001) Biochemistry 40, 6036-6046]:
Here, F is the ThT fluorescence at the time t. The constant t0 is the time needed to reach 50% of maximum fluorescence. The two important parameters describing fibril formation are the lag-time calculated by t0−2τ and the apparent rate constant kapp 1/τ.
Few of those intermediates nucleate to form a template onto which further intermediates may assembly and the fibrillation proceeds. The lag-time corresponds to the interval in which the critical mass of nucleus is built up and the apparent rate constant is the rate with which the fibril itself is formed.
Samples are prepared freshly before each assay. The drug substance was solved with 250 μM of the GIP derivative in 8 mM phosphate, 14 mg/mL propylene glycol, 58 mM phenol, pH 7.4. The pH of the sample was adjusted to the desired value using appropriate amounts of concentrated NaOH and HCl. Thioflavin T was added to the samples from a stock solution in H2O to a final concentration of 1 μM.
Sample aliquots of 200 μl were placed in each well of a 96 well microtiter plate (Packard OptiPlate™-96, white polystyrene). Four replica of each sample (corresponding to one test condition) was placed in one column of wells. The plate was sealed with Scotch Pad (Qiagen).
Incubation, shaking and measurement of the ThT fluorescence emission were done in a Fluoroskan Ascent FL fluorescence platereader (Thermo Labsystems). […] Fluorescence measurement was done using excitation through a 444 nm filter and measurement of emission through a 485 nm filter.
Each run was initiated by incubating the plate at the assay temperature for 10 min. The plate was measured every 20 minutes for a desired period of time. Between each measurement, the plate was shaken and heated as described.
After completion of the ThT assay the replica of each sample was pooled and centrifuged at 20000 rpm for 30 minutes at 18° C. The supernatant was filtered through a 0.22 μm filter and an aliquot was transferred to a HPLC vial. The concentration of the filtered sample relative to the initial sample (in percentage) was reported as the recovery.
The measurement points were saved in Microsoft Excel format for further processing and curve drawing and fitting was performed using GraphPad Prism. […] The data points were a mean of the four replica and shown with standard deviation error bars. Only data obtained in the same experiment (i.e. samples on the same plate) were presented in the same graph ensuring a relative measure of fibrillation between experiments.
The data set may be fitted to Eq. (1).

human GLP-1 receptor = molecular target: T2, human GLP-1 receptor (Homo sapiens, UniProt P43220); test: In vitro potency (CRE luciferase; whole cells), BHK CRE luc2P hGLP-1R; type: cell-based; settings: 0.2% HSA
T2 construct: expressed in transfected cells; host or cells: BHK (parent line BHKTS13), BHK CRE luc2P hGLP-1R clone #6
Description: In Vitro Potency (CRE Luciferase; Whole Cells)
The in vitro potency is the measure of human GIP, GLP-1 or glucagon receptor activation, respectively, in a whole cell assay.
In vitro potency was determined by measuring the response of the human GIP, GLP-1 or glucagon receptor in a reporter gene assay in individual cell lines. […] When the respective receptor is activated it results in the production of cAMP, which in turn results in the luciferase protein being expressed. When assay incubation is completed the luciferase substrate (luciferin) is added and the enzyme converts luciferin to oxyluciferin to produce bioluminescence. The luminescence is measured as the readout for the assay.
The cells were derived from a clone containing the CRE luciferase element and were established by further transfection with the respective receptor to obtain the current clone.
The cells were cultured at 5% CO2 in Cell Culture Medium. They were aliquoted and stored in liquid nitrogen. The cells were kept in passage and were seeded out the day before each assay.
The Assay Buffer consisted of 1% ovalbumin and 0.1% Pluronic F-68 in Assay Medium with the addition of human serum albumin at twice the indicated concentrations.
1) Cells were plated at 5000 cells/well and incubated overnight.
2) Cells were washed three times in PBS.
3) Assay Medium (50 μl aliquot) with or without serum albumin was added to each well in the assay plate.
4) Stocks of the test compounds and reference compounds were diluted to a concentration of 0.2 μM in Assay Buffer. […] 8) The cells were washed three times with PBS plus some liquid in each well. 9) A 100 μl aliquot of steadylite plus reagent was added to each well of the assay plate (reagent was light sensitive). 10) Each assay plate was covered with aluminum foil to protect it from light and shaken for 30 min at room temperature. 11) Each assay plate was read in a microtiter plate reader. Calculations and Results
The data from the microtiter plate reader was transferred to GraphPad Prism software. The software performs a non-linear regression (log(agonist) vs response).
A minimum of two replicates was measured for each sample. The reported values are averages of the replicates.

T2 sequence (P43220 24-463): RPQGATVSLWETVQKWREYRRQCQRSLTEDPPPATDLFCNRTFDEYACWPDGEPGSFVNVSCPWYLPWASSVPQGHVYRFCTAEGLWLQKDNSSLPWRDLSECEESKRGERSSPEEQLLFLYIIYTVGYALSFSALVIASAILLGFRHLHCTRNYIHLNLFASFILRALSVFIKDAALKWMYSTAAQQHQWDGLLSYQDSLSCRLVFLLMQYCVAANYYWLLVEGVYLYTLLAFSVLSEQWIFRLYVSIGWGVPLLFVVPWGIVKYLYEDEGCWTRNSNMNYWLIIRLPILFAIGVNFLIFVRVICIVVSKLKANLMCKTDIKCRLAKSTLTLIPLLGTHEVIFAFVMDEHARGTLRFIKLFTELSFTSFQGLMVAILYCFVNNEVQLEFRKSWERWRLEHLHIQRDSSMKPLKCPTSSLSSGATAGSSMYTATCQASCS

Compound | EC50 (human GIP receptor) [nM] | Purity loss (%/month) [1] [%/month] | HMWP formation (%/month) [2] [%/month] | DLS-SI precipitates [3] | ThT Assay Lag time [4] [h] | EC50 (human GLP-1 receptor) [nM]
CC[C@H](C)[C@H](NC(=O)[C@H](CO)NC(=O)[C@H](Cc1ccc(O)cc1)NC(=O)[C@H](CC(=O)O)NC(=O)[C@H](CO)NC(=O)[C@@H](NC(=O)[C@H](Cc1ccccc1)NC(=O)[C@@H](NC(=O)CNC(=O)[C@H](CCC(=O)O)NC(=O)[C@H](C)NC(=O)[C@@H](N)Cc1ccc(O)cc1)[C@@H](C)O)[C@@H](C)CC)C(=O)N[C@@H](C)C(=O)N[C@@H](CCSC)C(=O)N[C@@H](CC(=O)O)C(=O)N[C@@H](CCCCN)C(=O)N[C@H](C(=O)N[C@@H](Cc1c[nH]cn1)C(=O)N[C@@H](CCC(N)=O)C(=O)N[C@@H](CCC(N)=O)C(=O)N[C@@H](CC(=O)O)C(=O)N[C@@H](Cc1ccccc1)C(=O)N[C@H](C(=O)N[C@@H](CC(N)=O)C(=O)N[C@@H](Cc1c[nH]c2ccccc12)C(=O)N[C@@H](CC(C)C)C(=O)N[C@@H](CC(C)C)C(=O)N[C@@H](C)C(=O)N[C@@H](CCC(N)=O)C(=O)N[C@@H](CCCCN)C(=O)NCC(=O)O)C(C)C)[C@@H](C)CC [hGIP(1-31), reference compound] | 0.00224 | 86.9 | 0.15 | visible as precipitation; also recorded: Yes^## | 0 | 
CCCC[C@H](NC(=O)[C@H](C)NC(=O)[C@@H](NC(=O)[C@H](CO)NC(=O)[C@H](Cc1ccc(O)cc1)NC(=O)[C@H](CC(=O)O)NC(=O)[C@H](CO)NC(=O)[C@@H](NC(=O)[C@H](Cc1ccccc1)NC(=O)[C@@H](NC(=O)CNC(=O)[C@H](CCC(=O)O)NC(=O)C(C)(C)NC(=O)[C@@H](Cc1ccc(O)cc1)NC(C)=O)[C@@H](C)O)[C@@H](C)CC)[C@@H](C)CC)C(=O)N[C@@H](CC(=O)O)C(=O)N[C@@H](CCCCN)C(=O)N[C@H](C(=O)N[C@@H](CCCNC(=N)N)C(=O)N[C@@H](CCC(N)=O)C(=O)N[C@@H](CCC(N)=O)C(=O)N[C@@H](CC(=O)O)C(=O)N[C@@H](Cc1ccccc1)C(=O)N[C@H](C(=O)N[C@@H](CCCCNC(=O)CC[C@H](NC(=O)CC[C@H](NC(=O)CC[C@H](NC(=O)CCCCCCCCCCCCCCCCC(=O)O)C(=O)O)C(=O)O)C(=O)O)C(=O)N[C@@H](Cc1c[nH]c2ccccc12)C(=O)N[C@@H](CC(C)C)C(=O)N[C@@H](CC(C)C)C(=O)N[C@@H](C)C(=O)N[C@@H](CCC(N)=O)C(=O)N[C@@H](CCCCN)C(=O)N1CCC[C@H]1C(N)=O)C(C)C)[C@@H](C)CC [Compound 46, N{1}-acetyl,N{Epsilon-24}-[(4S)-4-carboxy-4-[[(4S)-4-carboxy-4-[[(4S)-4-carboxy-4-(17-carboxyheptadecanoylamino)butanoyl]amino]butanoyl]amino]butanoyl]-[D-Tyr1,Aib2,Nle14,Arg18,Lys24,Pro31]-hGIP(1-31) amide] | 0.0212 |  |  |  |  | > 100
